Test results taken from patent US20100292231A1, “Indazole Compounds for Treating Inflammatory Disorders, Demyelinating Disorders and Cancers” (priority 2007, published 2010).

Legend:
FLT3 = biological target: T1, FLT3 (Homo sapiens, UniProt P36888); test: SelectScreen FLT3 kinase dose response assay; assay type: biochemical; settings: ATP 100 micromolar; for inhibition at 1 µM: read-out: FLT3 Inhibition E1000 (percent inhibition at 1000 nMolar); for EC50: dose response, 4 parameter Hill equation, read-out: FLT3 Inhibition EC50
T1 construct: purchased Invitrogen (SelectScreen platform)
T1 sequence (P36888 27-993): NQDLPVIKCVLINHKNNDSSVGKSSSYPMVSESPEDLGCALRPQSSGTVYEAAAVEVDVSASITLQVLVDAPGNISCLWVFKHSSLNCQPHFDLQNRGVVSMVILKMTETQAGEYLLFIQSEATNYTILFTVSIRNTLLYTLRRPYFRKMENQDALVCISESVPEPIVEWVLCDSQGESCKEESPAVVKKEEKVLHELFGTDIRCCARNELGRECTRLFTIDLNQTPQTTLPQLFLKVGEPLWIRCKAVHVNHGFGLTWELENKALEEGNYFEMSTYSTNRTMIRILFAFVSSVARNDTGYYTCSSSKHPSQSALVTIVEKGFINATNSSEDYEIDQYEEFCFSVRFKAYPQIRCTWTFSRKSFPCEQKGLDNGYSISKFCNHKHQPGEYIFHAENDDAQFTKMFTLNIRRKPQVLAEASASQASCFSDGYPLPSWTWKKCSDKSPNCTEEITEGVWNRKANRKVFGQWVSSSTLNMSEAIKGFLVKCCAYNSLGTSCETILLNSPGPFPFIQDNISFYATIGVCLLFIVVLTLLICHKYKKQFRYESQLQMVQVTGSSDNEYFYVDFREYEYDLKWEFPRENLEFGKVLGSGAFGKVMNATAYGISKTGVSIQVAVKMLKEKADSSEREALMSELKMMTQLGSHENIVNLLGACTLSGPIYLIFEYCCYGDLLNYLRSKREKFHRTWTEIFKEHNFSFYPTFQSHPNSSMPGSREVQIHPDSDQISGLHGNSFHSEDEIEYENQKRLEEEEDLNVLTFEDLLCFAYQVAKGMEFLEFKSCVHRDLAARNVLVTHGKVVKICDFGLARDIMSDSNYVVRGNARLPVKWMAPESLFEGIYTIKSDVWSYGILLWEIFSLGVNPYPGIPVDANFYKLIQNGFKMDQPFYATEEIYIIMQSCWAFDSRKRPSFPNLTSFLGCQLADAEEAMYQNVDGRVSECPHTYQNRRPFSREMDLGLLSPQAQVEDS
Method: The terms “IC50” and “EC50” are used interchangeably. As used herein, “EC50” refers to nMolar concentration at median percent inhibition determined by dose respose (DR) assay. As used herein, the term “E1000” refers to percent inhibition at 1000 nMolar determined by assay.
Testing of the compounds described in this invention was carried out using the SelectScreen™ platform from Invitrogen, Inc. (Carlsbad. Calif., USA) and the details of its performance are readily viewed via the web by linking to: http://www.invitrogen.com/downloads/SelectScrn_Brochure.pdf.
Briefly, the approach is based on treating each specific kinase with a unique substrate and optical reporter system in the presence of ATP at 100 micromolar. In controls, the substrate is phosphorylated and a baseline optimal response is recorded.
The compounds were then re-tested by adding graded amounts of putative inhibitor which were added in 5 separate increments to generate a dose response curve. The latter is obtained by fitting to a 4 parameter Hill equation, a sigmoid saturation equation.
For the compounds of this invention, the experimental conditions were as follows. The 2× FLT3/Tyr 02 peptide mixture was prepared in 50 mM HEPES pH 7.5, 0.01 BRIJ-35, 10 mM MgCl2, 1 mM EGTA. The final 10 uL kinase reaction consists of 0.6-76.0 ng FLT3 and 2 uM Tyr 02 peptide in 50 mM HEPES pH 7.5, 0.01% BRIJ-35, 10 mM MgCl2, 1 mM EGTA. After 1 hour kinase reaction incubation, 5 uL of a 1:64 dilution of development reagent A was added.

CSF-1R = biological target: T2, CSF-1R (Homo sapiens, UniProt P07333); test: Kinase EC50 (10 pt curve or estimate, ATP Kmapp); assay type: biochemical; settings: from 10 pt curve or estimate based on 1 μm inhibition assay at ATP Kmapp
T2 construct: purchased Invitrogen (SelectScreen platform)
T2 sequence (P07333 20-972): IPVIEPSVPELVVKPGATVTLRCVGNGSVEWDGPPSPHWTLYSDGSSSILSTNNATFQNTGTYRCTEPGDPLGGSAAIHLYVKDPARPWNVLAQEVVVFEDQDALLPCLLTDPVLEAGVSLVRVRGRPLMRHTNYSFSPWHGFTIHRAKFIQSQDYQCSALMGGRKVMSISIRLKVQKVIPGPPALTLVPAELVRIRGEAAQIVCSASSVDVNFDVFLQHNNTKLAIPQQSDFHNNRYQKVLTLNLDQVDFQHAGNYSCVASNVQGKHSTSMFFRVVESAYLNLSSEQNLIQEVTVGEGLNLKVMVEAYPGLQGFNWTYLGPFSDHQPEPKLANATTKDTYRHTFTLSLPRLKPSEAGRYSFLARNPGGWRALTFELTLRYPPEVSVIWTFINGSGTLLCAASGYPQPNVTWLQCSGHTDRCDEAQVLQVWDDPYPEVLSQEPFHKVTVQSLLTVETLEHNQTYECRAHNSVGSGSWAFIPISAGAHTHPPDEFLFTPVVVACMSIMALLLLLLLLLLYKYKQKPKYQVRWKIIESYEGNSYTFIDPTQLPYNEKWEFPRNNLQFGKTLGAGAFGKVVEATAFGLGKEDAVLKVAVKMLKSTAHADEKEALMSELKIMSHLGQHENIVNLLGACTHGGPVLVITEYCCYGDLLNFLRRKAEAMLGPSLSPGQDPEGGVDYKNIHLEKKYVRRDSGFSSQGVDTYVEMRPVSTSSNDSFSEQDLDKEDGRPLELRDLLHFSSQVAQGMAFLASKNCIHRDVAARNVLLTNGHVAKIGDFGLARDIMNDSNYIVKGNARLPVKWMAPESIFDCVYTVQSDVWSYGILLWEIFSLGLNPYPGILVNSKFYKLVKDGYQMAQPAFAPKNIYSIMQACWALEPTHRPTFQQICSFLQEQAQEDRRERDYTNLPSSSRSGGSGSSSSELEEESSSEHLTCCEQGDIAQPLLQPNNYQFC

MdaMb231 cells = test: BrdU cell proliferation assay; assay type: cell-based; settings: for concentration at which cell proliferation was inhibited (BrdU): MdaMb231 cells, 24 hour treatment; for BrdU (Inhibition of cell proliferation): Table 5 summary, concentration inhibiting proliferation
Method: Representative compounds of the present invention were evaluated in a BrdU assay to determine their effect on the cell proliferation of MdaMb231 cells.
The effect of the inventive compounds on cell proliferation was analyzed by detecting 5-Bromo-2′-deoxy-uridine (BrdU) incorporation after 24 hour treatment with the test compounds. The cell proliferation ELISA BrdU kit (Roche™ cat. No. 11 647 229 001) was used according to manufacturer's protocol. Cells were plated at 10.000 cells/well. The next day compounds were added in concentration range of 2.5, 5, 10 and 20 μM.
After 24 hours, 12 μl/well BrdU labelling solution was added and cells were incubated for 6 hours at 37° C./5% CO2 before labeling solution was removed. Cells were fixed with 200 μl FixDenat™ solution for 30 minutes. After removal of fixative 100 μl BrdU-peroxidase working solution was added and cells were incubated for 90 minutes. Cells were subsequently washed three times. 100 μl substrate solution was added and after 30 minutes the absorbance was read at 370 nm.

| Compound | inhibition at 1 µM (FLT3; 1000 nMolar compound) | EC50 (FLT3) | EC50 (CSF-1R) | FLT3 Inhibition E1000 (percent inhibition at 1000 nMolar) (FLT3; 1000 nMolar compound) | concentration at which cell proliferation was inhibited (BrdU) (MdaMb231 cells) | BrdU (Inhibition of cell proliferation) (MdaMb231 cells) |
| --- | --- | --- | --- | --- | --- | --- |
| CN(C)c1ccc2ncn3c4ccc5[nH]ncc5c4c(=O)c1c23 [(IX)] | 98% | 9 nM |  |  |  |  |
| CNc1ccc2ncn3c4ccc5[nH]ncc5c4c(=O)c1c23 [(VII)] | 99% | 5 nM |  |  |  |  |
| CCN(CC)CCNc1ccc2ncn3c4ccc5[nH]ncc5c4c(=O)c1c23 [(VIII)] | 87% | 69 nM |  |  |  |  |
| O=c1c2c(NCCCN3CCOCC3)ccc3ncn(c4ccc5[nH]ncc5c14)c32 [(X)] | 98% | 11 nM | 280 nM |  | 20 µM | 20 μm |
| O=c1c2c(NCCN3CCOCC3)ccc3ncn(c4ccc5[nH]ncc5c14)c32 [Compound (V)] | 95% | 30 nM |  |  |  |  |
| CCN(CC)CCNc1ccc2ncn3c4ccc(O)cc4c(=O)c1c23 [Symadex, 5-(2-(diethylamino)ethylamino)-8-hydroxy-6H-imidazo[4,5,1-de]acridin-6-one, reference compound] | 96% | 24 nM | 430 nM |  |  |  |

The next lines start with results.

| inhibition at 1 µM (FLT3; 1000 nMolar compound) | EC50 (FLT3) | EC50 (CSF-1R) | FLT3 Inhibition E1000 (percent inhibition at 1000 nMolar) (FLT3; 1000 nMolar compound) | Compound | concentration at which cell proliferation was inhibited (BrdU) (MdaMb231 cells) | BrdU (Inhibition of cell proliferation) (MdaMb231 cells) |
| --- | --- | --- | --- | --- | --- | --- |
| 100% | 4 nM |  |  | CN(C)CCCCCNc1ccc2ncn3c4ccc5[nH]ncc5c4c(=O)c1c23 [(III)] |  |  |
| 100% | 5 nM |  |  | CCN(CC)c1ccc2ncn3c4ccc5[nH]ncc5c4c(=O)c1c23 [(VI)] |  |  |
| 98% | 11 nM | 360 nM |  | CN(C)CCNc1ccc2ncn3c4ccc5[nH]ncc5c4c(=O)c1c23 [(XII)] | 2.5 µM | 2.5 μm |
| 99% |  | 245 nM | 98% | CC(CCN1CCOCC1)Nc1ccc2ncn3c4ccc5[nH]ncc5c4c(=O)c1c23 (stereo not shown) [(XVI)] | 20 µM | 5 μm |
| 99% | 8 nM | 950 nM |  | CN1CCN(CCCNc2ccc3ncn4c5ccc6[nH]ncc6c5c(=O)c2c34)CC1 [(XVII)] |  | >20 μm |
| 98% | 14 nM | 200 nM |  | CN(C)CCCNc1ccc2ncn3c4ccc5[nH]ncc5c4c(=O)c1c23 [Compound (IV)] | 2.5 µM | 2.5 μm |
| 99% | 11 nM | 490 nM |  | CCN(CC)CCCNc1ccc2ncn3c4ccc5[nH]ncc5c4c(=O)c1c23 [Compound (XV)] | 20 µM |  |
